In US11312682B2, “Selective inhibitors of carbonic anhydrase” (VILNIUS UNIVERSITY, priority 2015, dated 2022):
Like-named read-outs stand apart in the source and are kept apart here.

Key:
human recombinant CA XII = human recombinant CA XII (Homo sapiens, UniProt O43570); assay: Fluorescent thermal shift assay (FTSA), binding to CA XII; settings: read-out: Dissociation constants, CA XII
human recombinant CA III = human recombinant CA III (Homo sapiens, UniProt P07451); assay: Fluorescent thermal shift assay (FTSA), binding to CA III; settings: Table 1; FTSA at 37° C. and pH 7.0; read-out: Dissociation constants, CA III
Chain of human recombinant CA III (P07451 whole entry): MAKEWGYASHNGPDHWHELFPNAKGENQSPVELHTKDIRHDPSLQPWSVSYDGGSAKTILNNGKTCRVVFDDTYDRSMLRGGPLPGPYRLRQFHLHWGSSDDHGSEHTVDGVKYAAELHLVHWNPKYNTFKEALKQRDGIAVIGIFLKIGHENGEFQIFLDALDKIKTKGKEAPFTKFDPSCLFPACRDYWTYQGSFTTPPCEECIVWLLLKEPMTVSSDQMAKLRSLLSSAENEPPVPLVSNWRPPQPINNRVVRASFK

human recombinant CA VA = human recombinant CA VA (Homo sapiens, UniProt P35218); assay: Fluorescent thermal shift assay (FTSA), binding to CA VA; settings: Table 1; FTSA at 37° C. and pH 7.0; read-out: Dissociation constants, CA VA
Chain of human recombinant CA VA (P35218 39-305): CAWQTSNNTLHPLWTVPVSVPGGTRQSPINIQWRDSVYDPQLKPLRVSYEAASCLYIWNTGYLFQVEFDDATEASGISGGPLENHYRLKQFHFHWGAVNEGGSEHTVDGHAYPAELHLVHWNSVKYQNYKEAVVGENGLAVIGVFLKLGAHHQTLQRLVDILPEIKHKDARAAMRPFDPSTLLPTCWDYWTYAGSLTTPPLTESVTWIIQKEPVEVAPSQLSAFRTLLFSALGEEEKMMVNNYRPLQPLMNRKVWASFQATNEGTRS

human recombinant CA VB = human recombinant CA VB (Homo sapiens, UniProt Q9Y2D0); assay: Fluorescent thermal shift assay (FTSA), binding to CA VB; settings: Table 1; FTSA at 37° C. and pH 7.0; read-out: Dissociation constants, CA VB
Chain of human recombinant CA VB (Q9Y2D0 34-317): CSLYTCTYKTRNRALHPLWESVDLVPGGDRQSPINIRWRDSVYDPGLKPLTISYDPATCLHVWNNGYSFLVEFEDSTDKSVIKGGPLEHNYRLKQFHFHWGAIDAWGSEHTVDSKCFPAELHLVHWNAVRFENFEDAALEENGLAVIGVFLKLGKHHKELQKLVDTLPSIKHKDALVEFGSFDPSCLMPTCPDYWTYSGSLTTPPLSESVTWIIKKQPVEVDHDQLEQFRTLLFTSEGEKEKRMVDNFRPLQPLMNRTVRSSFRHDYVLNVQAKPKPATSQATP

human recombinant CA VI = human recombinant CA VI (Homo sapiens, UniProt P23280); assay: Fluorescent thermal shift assay (FTSA), binding to CA VI; settings: Table 1; FTSA at 37° C. and pH 7.0; read-out: Dissociation constants, CA VI
Chain of human recombinant CA VI (P23280 18-308): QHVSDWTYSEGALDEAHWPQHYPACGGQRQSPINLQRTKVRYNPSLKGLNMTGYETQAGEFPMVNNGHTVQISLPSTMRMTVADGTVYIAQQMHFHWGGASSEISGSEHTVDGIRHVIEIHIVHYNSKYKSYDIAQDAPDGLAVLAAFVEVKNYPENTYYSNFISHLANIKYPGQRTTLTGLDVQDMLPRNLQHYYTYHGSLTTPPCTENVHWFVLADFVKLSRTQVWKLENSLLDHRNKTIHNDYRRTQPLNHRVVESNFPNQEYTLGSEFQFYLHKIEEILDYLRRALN

human recombinant CA IV = human recombinant CA IV (Homo sapiens, UniProt P22748); assay: Fluorescent thermal shift assay (FTSA), binding to CA IV; settings: Table 1; FTSA at 37° C. and pH 7.0; read-out: Dissociation constants, CA IV
Chain of human recombinant CA IV (P22748 19-284): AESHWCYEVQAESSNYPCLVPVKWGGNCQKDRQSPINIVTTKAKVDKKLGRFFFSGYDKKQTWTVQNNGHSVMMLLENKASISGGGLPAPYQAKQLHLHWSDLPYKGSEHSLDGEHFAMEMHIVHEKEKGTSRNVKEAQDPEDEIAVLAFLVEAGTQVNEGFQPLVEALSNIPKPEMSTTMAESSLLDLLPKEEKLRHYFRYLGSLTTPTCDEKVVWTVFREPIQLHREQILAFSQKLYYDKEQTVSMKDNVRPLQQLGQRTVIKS

human recombinant CA XIV = human recombinant CA XIV (Homo sapiens, UniProt Q9ULX7); assay: Fluorescent thermal shift assay (FTSA), binding to CA XIV; settings: read-out: Dissociation constants, CA XIV
Chain of human recombinant CA XIV (Q9ULX7 16-337): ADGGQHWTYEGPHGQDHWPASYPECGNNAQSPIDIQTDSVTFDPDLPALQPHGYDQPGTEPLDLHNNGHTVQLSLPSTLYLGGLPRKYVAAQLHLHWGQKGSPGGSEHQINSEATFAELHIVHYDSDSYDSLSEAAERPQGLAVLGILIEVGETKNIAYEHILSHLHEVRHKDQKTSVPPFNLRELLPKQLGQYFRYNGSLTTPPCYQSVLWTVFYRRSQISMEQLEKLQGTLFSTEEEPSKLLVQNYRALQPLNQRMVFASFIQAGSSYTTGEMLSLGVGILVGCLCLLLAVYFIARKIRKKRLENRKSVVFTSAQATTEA

[1] = biological target: human recombinant CA XIII (Homo sapiens, UniProt Q8N1Q1); assay: Fluorescent thermal shift assay (FTSA), binding to CA XIII; settings: Table 1; FTSA at 37° C. and pH 7.0; read-out: Dissociation constants, CA XIII
Chain of human recombinant CA XIII (Q8N1Q1 whole entry): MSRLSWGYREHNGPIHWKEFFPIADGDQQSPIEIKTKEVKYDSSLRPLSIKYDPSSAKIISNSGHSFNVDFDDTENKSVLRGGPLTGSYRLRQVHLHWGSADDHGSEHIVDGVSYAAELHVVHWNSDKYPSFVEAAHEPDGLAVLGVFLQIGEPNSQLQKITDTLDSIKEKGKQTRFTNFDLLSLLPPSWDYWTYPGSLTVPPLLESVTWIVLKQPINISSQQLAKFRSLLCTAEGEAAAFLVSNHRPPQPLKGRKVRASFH

human recombinant CA VII = human recombinant CA VII (Homo sapiens, UniProt P43166); assay: Fluorescent thermal shift assay (FTSA), binding to CA VII; settings: Table 1; FTSA at 37° C. and pH 7.0; read-out: Dissociation constants, CA VII
Chain of human recombinant CA VII (P43166 whole entry): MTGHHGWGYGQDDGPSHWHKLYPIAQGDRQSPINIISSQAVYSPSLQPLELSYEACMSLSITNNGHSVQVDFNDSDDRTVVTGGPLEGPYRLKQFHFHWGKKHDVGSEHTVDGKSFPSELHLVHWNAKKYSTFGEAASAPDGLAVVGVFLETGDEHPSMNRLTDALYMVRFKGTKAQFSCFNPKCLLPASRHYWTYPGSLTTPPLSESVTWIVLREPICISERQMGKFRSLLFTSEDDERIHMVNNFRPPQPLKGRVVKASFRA

human recombinant CA IX = human recombinant CA IX (Homo sapiens, UniProt Q16790); assay: Fluorescent thermal shift assay (FTSA), binding to CA IX; settings: read-out: Dissociation constants, CA IX
human recombinant CA I = human recombinant CA I (Homo sapiens, UniProt P00915); assay: Fluorescent thermal shift assay (FTSA), binding to CA I; settings: Table 3; FTSA at 37° C., pH 7.0; read-out: Dissociation constants, CA I
Chain of human recombinant CA I (P00915 whole entry): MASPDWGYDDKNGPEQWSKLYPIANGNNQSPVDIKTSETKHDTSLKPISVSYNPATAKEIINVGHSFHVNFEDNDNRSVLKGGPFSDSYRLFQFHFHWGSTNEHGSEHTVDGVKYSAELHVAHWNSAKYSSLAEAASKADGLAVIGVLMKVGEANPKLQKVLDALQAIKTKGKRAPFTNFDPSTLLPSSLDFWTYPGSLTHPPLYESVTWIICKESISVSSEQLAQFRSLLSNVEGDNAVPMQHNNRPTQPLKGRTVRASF

human recombinant CA II = human recombinant CA II (Homo sapiens, UniProt P00918); assay: Fluorescent thermal shift assay (FTSA), binding to CA II; settings: read-out: Dissociation constants, CA II
[2] = Table 1, FTSA at 37° C. and pH 7.0
[3] = Table 3, FTSA at 37° C., pH 7.0

Chain of human recombinant CA XII (O43570 25-354): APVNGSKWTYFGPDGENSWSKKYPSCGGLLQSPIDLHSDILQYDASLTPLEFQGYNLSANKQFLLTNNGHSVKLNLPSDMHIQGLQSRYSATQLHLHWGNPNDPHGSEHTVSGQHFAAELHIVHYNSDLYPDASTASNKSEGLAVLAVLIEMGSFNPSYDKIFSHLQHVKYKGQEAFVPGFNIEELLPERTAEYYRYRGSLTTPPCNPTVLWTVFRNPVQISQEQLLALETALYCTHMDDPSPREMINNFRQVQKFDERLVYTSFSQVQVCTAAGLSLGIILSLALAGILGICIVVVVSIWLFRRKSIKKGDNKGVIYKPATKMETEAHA

Molecule | Kd (human recombinant CA VA) | Kd (human recombinant CA XIV; [2]) | Kd [1] | Kd (human recombinant CA VII) | Kd (human recombinant CA IX; [2]) | Kd (human recombinant CA XII; [3]) | Kd (human recombinant CA I) | Kd (human recombinant CA II; [3]) | Kd (human recombinant CA IX; [3]) | further results
2,4-dichloro-5-[2-(5-methoxybenzimidazol-1-yl)acetyl]benzenesulfonamide and 2,4-dichloro-5-[2-(6-methoxybenzimidazol-1-yl)acetyl]benzenesulfonamide [Compound 31] | 6 nM | 40 nM | 600 nM | 300 nM | 400 nM | – | – | – | – | Kd (human recombinant CA XII; [2]): 2800 nM; Kd (human recombinant CA III): 40000 nM; Kd (human recombinant CA VB): 700 nM; Kd (human recombinant CA VI): 1800 nM; Kd (human recombinant CA IV): 1400 nM
COC(=O)c1cc(S(N)(=O)=O)c(Cl)cc1Sc1ccccc1 [Compound 14a, methyl 4-chloro-2-phenylsulfanyl-5-sulfamoyl-benzoate] | – | – | – | – | – | 6.7 nM | 10000 nM | – | – | –
COC(=O)c1cc(S(N)(=O)=O)c(Cl)cc1SC1CCCCC1 [Compound 14b, methyl 4-chloro-2-cyclohexylsulfanyl-5-sulfamoyl-benzoate] | – | – | – | – | – | 33 nM | 17000 nM | 250 nM | 0.3 nM | –
COC(=O)c1cc(S(N)(=O)=O)c(Cl)cc1SCc1ccccc1 [Compound 14c, methyl 2-benzylsulfanyl-4-chloro-5-sulfamoyl-benzoate] | – | – | – | – | – | 22 nM | 6900 nM | 110 nM | 2.9 nM | –
COC(=O)c1cc(S(N)(=O)=O)c(Cl)cc1SCCc1ccccc1 [Compound 14d, methyl 4-chloro-2-phenethylsulfanyl-5-sulfamoyl-benzoate] | – | – | – | – | – | 53 nM | 13000 nM | 170 nM | 13 nM | –
NS(=O)(=O)c1cc(C(=O)Cn2cnc3ccccc32)ccc1Cl [Compound 19, 5-[2-(benzimidazol-1-yl)acetyl]-2-chloro-benzenesulfonamide] | 0.3 nM | 50 nM | 800 nM | – | – | – | – | – | – | Kd (human recombinant CA III): > 200000 nM; Kd (human recombinant CA VI): 700 nM; Kd (human recombinant CA IV): 600 nM
Cc1cc2ncn(CC(=O)c3ccc(Cl)c(S(N)(=O)=O)c3)c2cc1C [Compound 20, 2-chloro-5-[2-(5,6-dimethylbenzimidazol-1-yl)acetyl]benzenesulfonamide] | 0.8 nM | 50 nM | 800 nM | – | 600 nM | – | – | – | – | Kd (human recombinant CA XII; [2]): 3100 nM; Kd (human recombinant CA II; [2]): 600 nM
NS(=O)(=O)c1cc(C(=O)Cn2cnc3ccccc32)c(Cl)cc1Cl [Compound 29, 5-[2-(benzimidazol-1-yl)acetyl]-2,4-dichloro-benzenesulfonamide] | 2 nM | 20 nM | 700 nM | 100 nM | 400 nM | – | – | – | – | –
Cc1cc2ncn(CC(=O)c3cc(S(N)(=O)=O)c(Cl)cc3Cl)c2cc1C [Compound 30, 2,4-dichloro-5-[2-(5,6-dimethylbenzimidazol-1-yl)acetyl]benzenesulfonamide] | 5 nM | 300 nM | – | 700 nM | – | – | – | – | – | Kd (human recombinant CA II; [2]): 500 nM
COC(=O)c1cc(S(N)(=O)=O)c(Cl)cc1S(=O)(=O)c1ccccc1 [Compound 42a, methyl 2-(benzenesulfonyl)-4-chloro-5-sulfamoyl-benzoate] | – | – | – | – | – | – | – | – | – | Kd (human recombinant CA XIV; Table 2, FTSA at 37° C., pH 7.0): 0.03 nM
